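48-hour exposure; five concentrations; linearly interpolated endpoints. GI50 marks 50% less growth.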 Activity calls are given as the source filed them. No stated cut-off is given here; in the data, active = GI50 up to about 1.1 µM and inactive = higher.
What was measured:
Assay in all cases: growth of human tumour cells (NCI), 48 h
786-0 = test system: 786-0
A498 = test system: A498
A549 = test system: A549
ACHN = test system: ACHN
BT-549 = test system: BT-549
CAKI-1 = test system: CAKI-1
CCRF-CEM = test system: CCRF-CEM
COLO 205 = test system: COLO 205
EKVX = test system: EKVX
HCC 2998 = test system: HCC 2998
HCT-116 = test system: HCT-116
HCT-15 = test system: HCT-15
HL-60 = test system: HL-60
HOP-62 = test system: HOP-62
HOP-92 = test system: HOP-92
HT-29 = test system: HT-29
Hs-578T = test system: Hs-578T
IGROV-1 = test system: IGROV-1
K562 = test system: K562
KM12 = test system: KM12
LOX IMVI = test system: LOX IMVI
M14 = test system: M14
MCF7 = test system: MCF7
MDA-MB-231 = test system: MDA-MB-231
MDA-MB-435 = test system: MDA-MB-435
MDA-N = test system: MDA-N
MOLT-4 = test system: MOLT-4
Malme-3M = test system: Malme-3M
NCI-H226 = test system: NCI-H226
NCI-H23 = test system: NCI-H23
NCI-H460 = test system: NCI-H460
NCI-H522 = test system: NCI-H522
NCI/ADR-RES = test system: NCI/ADR-RES
OVCAR-3 = test system: OVCAR-3
OVCAR-4 = test system: OVCAR-4
OVCAR-5 = test system: OVCAR-5
OVCAR-8 = test system: OVCAR-8
PC-3 = test system: PC-3
RPMI-8226 = test system: RPMI-8226
RXF 393 = test system: RXF 393
SF-268 = test system: SF-268
SF-295 = test system: SF-295
SF-539 = test system: SF-539
SK-MEL-28 = test system: SK-MEL-28
SK-MEL-2 = test system: SK-MEL-2
SK-MEL-5 = test system: SK-MEL-5
SK-OV-3 = test system: SK-OV-3
SNB-19 = test system: SNB-19
SNB-75 = test system: SNB-75
SR = test system: SR
SW-620 = test system: SW-620
T47D = test system: T47D
TK-10 = test system: TK-10
U-251 = test system: U-251
UACC-257 = test system: UACC-257
UACC-62 = test system: UACC-62
UO-31 = test system: UO-31
DU-145 = test system: DU-145
SN12C = test system: SN12C

Measured: GI50

O=c1c2cc(O)c(O)cc2oc2cc(O)c(C3OC(CO)C(O)C(O)C3O)c(O)c12 (configuration not stated)
inactive: 786-0 > 100 µM | A498 > 100 µM | A549 > 100 µM | ACHN > 100 µM | BT-549 > 100 µM | CAKI-1 > 100 µM | CCRF-CEM > 100 µM | COLO 205 > 100 µM | EKVX > 100 µM | HCC 2998 > 100 µM | HCT-116 > 100 µM | HL-60 > 100 µM | HOP-62 > 100 µM | HOP-92 > 100 µM | HT-29 > 100 µM | Hs-578T > 100 µM | IGROV-1 > 100 µM | K562 > 100 µM | KM12 > 100 µM | LOX IMVI > 100 µM | M14 > 100 µM | MCF7 > 100 µM | MDA-MB-231 > 100 µM | MDA-MB-435 > 100 µM | MDA-N > 100 µM | MOLT-4 > 100 µM | Malme-3M > 100 µM | NCI-H226 > 100 µM | NCI-H23 > 100 µM | NCI-H460 > 100 µM | NCI-H522 > 100 µM | NCI/ADR-RES > 100 µM | OVCAR-3 > 100 µM | OVCAR-4 > 100 µM | OVCAR-5 > 100 µM | OVCAR-8 > 100 µM | PC-3 > 100 µM | RPMI-8226 > 100 µM | RXF 393 > 100 µM | SF-268 > 100 µM | SF-295 > 100 µM | SF-539 > 100 µM | SK-MEL-28 > 100 µM | SK-MEL-2 > 100 µM | SK-MEL-5 > 100 µM | SK-OV-3 > 100 µM | SNB-19 > 100 µM | SNB-75 > 100 µM | SR > 100 µM | SW-620 > 100 µM | T47D > 100 µM | TK-10 > 100 µM | U-251 > 100 µM | UACC-257 > 100 µM | UACC-62 > 100 µM | UO-31 > 100 µM
> 100 µM: HCT-15

CN(C)c1ccc(/N=N/c2ccncc2)cc1
inactive: 786-0 > 100 µM | A498 > 100 µM | A549 > 100 µM | ACHN > 100 µM | BT-549 84.1 µM | CAKI-1 > 100 µM | CCRF-CEM > 100 µM | COLO 205 56.6 µM | DU-145 > 100 µM | EKVX 18.5 µM | HCC 2998 22.6 µM | HCT-116 > 100 µM | HL-60 > 100 µM | HOP-62 > 100 µM | HOP-92 17.6 µM | HT-29 95.1 µM | Hs-578T > 100 µM | IGROV-1 > 100 µM | K562 43.5 µM | KM12 > 100 µM | LOX IMVI 93.1 µM | M14 > 100 µM | MCF7 40.8 µM | MDA-MB-231 > 100 µM | MDA-MB-435 28.8 µM | MDA-N 46 µM | MOLT-4 39.8 µM | Malme-3M > 100 µM | NCI-H226 64.4 µM | NCI-H23 > 100 µM | NCI-H460 > 100 µM | NCI/ADR-RES 31.2 µM | OVCAR-3 > 100 µM | OVCAR-4 48.1 µM | OVCAR-5 > 100 µM | OVCAR-8 > 100 µM | PC-3 > 100 µM | RPMI-8226 47.1 µM | RXF 393 > 100 µM | SF-268 85.7 µM | SF-295 > 100 µM | SF-539 > 100 µM | SK-MEL-28 > 100 µM | SK-MEL-5 67 µM | SK-OV-3 40 µM | SN12C > 100 µM | SNB-19 > 100 µM | SW-620 > 100 µM | T47D > 100 µM | TK-10 > 100 µM | U-251 > 100 µM | UACC-257 > 100 µM | UACC-62 87.5 µM | UO-31 > 100 µM
> 100 µM: HCT-15

— ChEMBL document CHEMBL1201862, “PubChem BioAssay data set” (2004)
